From ChEMBL document CHEMBL5647694, “Novel orally bioavailable EZH1/2 dual inhibitors with greater antitumor efficacy than an EZH2 selective inhibitor” (Cancer Sci, 2017)

Legend:
[1] = Toxicity in Crl:CD Sprague-Dawley rat assessed as urea nitrogen level in blood at 100 mg/kg, po administered daily for 14 days (reference value: 16.7+/-2.39 mg/dL); format: organism-based; conditions: in vivo, 336 h, time 14 day
[2] = Toxicity in Crl:CD Sprague-Dawley rat assessed as calcium level in blood at 100 mg/kg, po administered daily for 14 days (reference value: 10.1 +/-0.096 mg/dL); format: organism-based; conditions: in vivo, 336 h, time 14 day
[3] = Toxicity in Crl:CD Sprague-Dawley rat assessed as mean corpuscular volume in blood at 100 mg/kg, po administered daily for 14 days (reference value: 61.5 +/-1.92 fL); format: organism-based; conditions: in vivo, 336 h, time 14 day
[4] = Mean AUC (0-24 hrs) in Crl:CD Sprague-Dawley rat at 100 mg/kg, po administered daily for 14 days by LC/MS/MS analysis; format: ADME, organism-based; conditions: in vivo, time 14 day
[5] = Toxicity in Crl:CD Sprague-Dawley rat assessed as glucose level in blood at 100 mg/kg, po administered daily for 14 days (reference value: 193 +/-[…]); format: organism-based; conditions: in vivo, 336 h, time 14 day
[6] = molecular target: RAC-beta serine/threonine-protein kinase (Homo sapiens) (UniProt P31751); assay: Inhibition of N-terminal GST-tagged human AKT2 catalytic domain (120 to 481 residues) co-expressed with His-tagged PDK1 (1 to 556 residues) in baculovirus-infected Sf21 cells using Crosstide as substrate at 1 uM in presence of ATP by Mobility shift assay
Sequence of RAC-beta serine/threonine-protein kinase (Homo sapiens) (P31751 whole entry, the tested form may be a part): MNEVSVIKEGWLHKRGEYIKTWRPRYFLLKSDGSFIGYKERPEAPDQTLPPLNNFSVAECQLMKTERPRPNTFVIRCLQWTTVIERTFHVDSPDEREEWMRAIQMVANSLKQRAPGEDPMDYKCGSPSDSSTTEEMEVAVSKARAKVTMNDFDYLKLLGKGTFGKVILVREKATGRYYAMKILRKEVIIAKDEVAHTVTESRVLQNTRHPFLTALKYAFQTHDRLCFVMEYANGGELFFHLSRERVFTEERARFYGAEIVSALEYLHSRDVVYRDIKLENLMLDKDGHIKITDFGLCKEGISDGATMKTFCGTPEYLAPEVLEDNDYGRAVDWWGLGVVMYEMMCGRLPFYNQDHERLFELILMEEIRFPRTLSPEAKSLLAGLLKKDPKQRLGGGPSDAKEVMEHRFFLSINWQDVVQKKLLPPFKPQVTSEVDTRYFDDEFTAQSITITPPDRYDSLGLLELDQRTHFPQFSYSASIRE

HCC38 = assay: Antitumor activity against human HCC38 cells assessed as cell growth inhibition treated for 10 to 15 days; format: functional; conditions: time 10-15 day
[7] = Antitumor activity against human OVMANA cells assessed as cell growth inhibition treated for 10 to 15 days; format: functional; conditions: time 10-15 day
[8] = Antitumor activity against human COV644 cells assessed as cell growth inhibition treated for 10 to 15 days; format: functional; conditions: time 10-15 day
A2780 = assay: Antitumor activity against human A2780 cells assessed as cell growth inhibition treated for 10 to 15 days; format: functional; conditions: time 10-15 day
U-937 = assay: Antitumor activity against human U-937 cells assessed as cell growth inhibition treated for 10 to 15 days; format: functional; conditions: time 10-15 day
Hs746T = assay: Antitumor activity against human Hs746T cells assessed as cell growth inhibition treated for 10 to 15 days; format: functional; conditions: time 10-15 day
CCRF-CEM = assay: Antitumor activity against human CCRF-CEM cells assessed as cell growth inhibition treated for 10 to 15 days; format: functional; conditions: time 10-15 day
KG-1 = assay: Antitumor activity against human KG-1 cells assessed as cell growth inhibition treated for 10 to 15 days; format: functional; conditions: time 10-15 day
[9] = molecular target: Histone-lysine N-methyltransferase 2C (Homo sapiens, UniProt Q8NEZ4); assay: Inhibition of human MLL3 using Core Histone and [3H]SAM as substrate incubated for 30 mins to 1 hr by HotSpot kinase assay
SNU-16 = assay: Antitumor activity against human SNU-16 cells assessed as cell growth inhibition treated for 10 to 15 days; format: functional; conditions: time 10-15 day
NCI-N87 = assay: Antitumor activity against human NCI-N87 cells assessed as cell growth inhibition treated for 10 to 15 days; format: functional; conditions: time 10-15 day
T47D = assay: Antitumor activity against human T47D cells assessed as cell growth inhibition treated for 10 to 15 days; format: functional; conditions: time 10-15 day
MDA-MB-361 = assay: Antitumor activity against human MDA-MB-361 cells assessed as cell growth inhibition treated for 10 to 15 days; format: functional; conditions: time 10-15 day
NCI-H1436 = assay: Antitumor activity against human NCI-H1436 cells assessed as cell growth inhibition treated for 10 to 15 days; format: functional; conditions: time 10-15 day
JeKo-1 = assay: Antitumor activity against human JeKo-1 cells assessed as cell growth inhibition treated for 10 to 15 days; format: functional; conditions: time 10-15 day
REH = assay: Antitumor activity against human REH cells assessed as cell growth inhibition treated for 10 to 15 days; format: functional; conditions: time 10-15 day
MDA-MB-175-VII = assay: Antitumor activity against human MDA-MB-175-VII cells assessed as cell growth inhibition treated for 10 to 15 days; format: functional; conditions: time 10-15 day
ACHN = assay: Antitumor activity against human ACHN cells assessed as cell growth inhibition treated for 10 to 15 days; format: functional; conditions: time 10-15 day
MLMA = assay: Antitumor activity against human MLMA cells assessed as cell growth inhibition treated for 10 to 15 days; format: functional; conditions: time 10-15 day
HCC1143 = assay: Antitumor activity against human HCC1143 cells assessed as cell growth inhibition treated for 10 to 15 days; format: functional; conditions: time 10-15 day
SNU-5 = assay: Antitumor activity against human SNU-5 cells assessed as cell growth inhibition treated for 10 to 15 days; format: functional; conditions: time 10-15 day
MOLM-14 = assay: Antitumor activity against human MOLM-14 cells assessed as cell growth inhibition treated for 10 to 15 days; format: functional; conditions: time 10-15 day
[10] = Antitumor activity against human Kasumi-3 cells assessed as cell growth inhibition treated for 10 to 15 days; format: functional; conditions: time 10-15 day
[11] = molecular target: Protein arginine N-methyltransferase 6 (Homo sapiens, UniProt Q96LA8); assay: Inhibition of human PRMT6 using Histone H3 and [3H]SAM as substrate incubated for 30 mins to 1 hr by HotSpot kinase assay
Sequence of Protein arginine N-methyltransferase 6 (Q96LA8 whole entry): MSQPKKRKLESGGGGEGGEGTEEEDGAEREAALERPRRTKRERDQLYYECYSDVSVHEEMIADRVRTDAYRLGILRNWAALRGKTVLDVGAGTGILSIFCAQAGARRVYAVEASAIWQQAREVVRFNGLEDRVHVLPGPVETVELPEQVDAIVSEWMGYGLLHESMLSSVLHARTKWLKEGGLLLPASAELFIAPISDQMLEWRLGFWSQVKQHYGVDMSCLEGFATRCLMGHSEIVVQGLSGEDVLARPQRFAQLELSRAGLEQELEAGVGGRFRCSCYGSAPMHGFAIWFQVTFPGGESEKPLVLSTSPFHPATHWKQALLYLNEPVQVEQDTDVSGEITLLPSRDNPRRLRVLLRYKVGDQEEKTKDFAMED

CW-2 = assay: Antitumor activity against human CW-2 cells assessed as cell growth inhibition treated for 10 to 15 days; format: functional; conditions: time 10-15 day
SNU-449 = assay: Antitumor activity against human SNU-449 cells assessed as cell growth inhibition treated for 10 to 15 days; format: functional; conditions: time 10-15 day
[12] = system: KATO III stomach cancer cell line; assay: Antitumor activity against human KATO III stomach cancer cell line assessed as cell growth inhibition treated for 10 to 15 days; format: functional; conditions: time 10-15 day
[13] = molecular target: Tyrosine-protein kinase SYK (Homo sapiens) (UniProt P43405); assay: Inhibition of N-terminal GST-tagged full length human SYK (1 to 635 residues) expressed in baculovirus-infected Sf21 cells using Blk/Lyntide as substrate at 1 uM in presence of ATP by Mobility shift assay
TGBC11TKB = assay: Antitumor activity against human TGBC11TKB cells assessed as cell growth inhibition treated for 10 to 15 days; format: functional; conditions: time 10-15 day
ARH-77 = assay: Antitumor activity against human ARH-77 cells assessed as cell growth inhibition treated for 10 to 15 days; format: functional; conditions: time 10-15 day
TOV21G = assay: Antitumor activity against human TOV-21G cells assessed as cell growth inhibition treated for 10 to 15 days; format: functional; conditions: time 10-15 day
SJRH30 = assay: Antitumor activity against human SJRH30 cells assessed as cell growth inhibition treated for 10 to 15 days; format: functional; conditions: time 10-15 day
SK-OV-3 = assay: Antitumor activity against human SK-OV-3 cells assessed as cell growth inhibition treated for 10 to 15 days; format: functional; conditions: time 10-15 day
DU-4475 = assay: Antitumor activity against human DU-4475 cells assessed as cell growth inhibition treated for 10 to 15 days; format: functional; conditions: time 10-15 day
A204 = assay: Antitumor activity against human A204 cells assessed as cell growth inhibition treated for 10 to 15 days; format: functional; conditions: time 10-15 day
DB = assay: Antitumor activity against human DB cells assessed as cell growth inhibition treated for 10 to 15 days; format: functional; conditions: time 10-15 day
SW48 = assay: Antitumor activity against human SW48 cells assessed as cell growth inhibition treated for 10 to 15 days; format: functional; conditions: time 10-15 day
RPMI-8226 = assay: Antitumor activity against human RPMI-8226 cells assessed as cell growth inhibition treated for 10 to 15 days; format: functional; conditions: time 10-15 day

Q: For `Cc1cc(C)c(CNC(=O)c2cc(Br)c3c(c2C)O[C@@](C)([C@H]2CC[C@H](N(C)C)CC2)O3)c(=O)[nH]1`, which Activity [1] is on record?
A: 16.8 mg/dL

Q: What about the Activity [2] of the same molecule?
A: 9.88 mg/dL

Q: What about the Activity [3] of the same molecule?
A: 60.9 fL

Q: What about the AUC at 336 h [4] of the same molecule?
A: 27.9 µM·h

Q: What about the Activity [5] of the same molecule?
A: 216 mg/dL

Q: What about the inhibition [6] of the same molecule?
A: -9.5%

Q: For `Cc1cc(C)c(CNC(=O)c2cc(Cl)c3c(c2C)O[C@@](C)([C@H]2CC[C@H](N(C)C)CC2)O3)c(=O)[nH]1` [VALEMETOSTAT], which GI50 (HCC38) is on record?
A: > 1000 nM

Q: What about the GI50 [7] of the same molecule?
A: > 1000 nM

Q: What about the GI50 [8] of the same molecule?
A: > 1000 nM

Q: And the GI50 (A2780)?
A: 36 nM

Q: And the GI50 (U-937)?
A: > 1000 nM

Q: And the GI50 (Hs746T)?
A: > 1000 nM

Q: What about the GI50 (CCRF-CEM) of the same molecule?
A: > 1000 nM

Q: What about the GI50 (KG-1) of the same molecule?
A: 700 nM

Q: And the IC50 [9]?
A: 100000 nM

Q: And the GI50 (SNU-16)?
A: > 1000 nM

Q: What about the GI50 (NCI-N87) of the same molecule?
A: 536 nM

Q: And the GI50 (T47D)?
A: > 1000 nM

Q: And the GI50 (MDA-MB-361)?
A: 109 nM

Q: And the GI50 (NCI-H1436)?
A: 216 nM

Q: What about the GI50 (JeKo-1) of the same molecule?
A: 92.2 nM

Q: What about the GI50 (REH) of the same molecule?
A: > 1000 nM

Q: And the GI50 (MDA-MB-175-VII)?
A: 43.9 nM

Q: What about the GI50 (ACHN) of the same molecule?
A: > 1000 nM

Q: What about the GI50 (MLMA) of the same molecule?
A: 273 nM

Q: And the GI50 (HCC1143)?
A: > 1000 nM

Q: And the GI50 (SNU-5)?
A: 52.4 nM

Q: And the GI50 (MOLM-14)?
A: 70 nM

Q: And the GI50 [10]?
A: > 1000 nM

Q: What about the IC50 [11] of the same molecule?
A: 100000 nM

Q: And the GI50 (CW-2)?
A: > 1000 nM

Q: And the GI50 (SNU-449)?
A: > 1000 nM

Q: What about the GI50 [12] of the same molecule?
A: 18.2 nM

Q: What about the inhibition [13] of the same molecule?
A: -8.4%

Q: And the GI50 (TGBC11TKB)?
A: 86.7 nM

Q: And the GI50 (ARH-77)?
A: > 1000 nM

Q: What about the GI50 (TOV21G) of the same molecule?
A: 55.5 nM

Q: What about the GI50 (SJRH30) of the same molecule?
A: > 1000 nM

Q: And the GI50 (SK-OV-3)?
A: > 1000 nM

Q: What about the GI50 (DU-4475) of the same molecule?
A: > 1000 nM

Q: And the GI50 (A204)?
A: 29.2 nM

Q: And the GI50 (DB)?
A: 4.11 nM

Q: And the GI50 (SW48)?
A: > 1000 nM

Q: What about the GI50 (RPMI-8226) of the same molecule?
A: 1.91 nM
